Experimental data published in PubChem BioAssay AID1259407 (Chemical Carcinogenesis Research Information System (CCRIS), 2018).
Calls of active or inactive are those of the source. No rule for the calls is given here.

Tested on: CCRIS mutagenicity, Ames/micronucleus/aberration tests
Experiment: CCRIS mutagenicity studies
[1] = Test System: AMES SALMONELLA TYPHIMURIUM, Strain/Indicator: TA98, Metabolic Activation: NONE, Method: PREINCUBATION
[2] = Test System: AMES SALMONELLA TYPHIMURIUM, Strain/Indicator: TA100, Metabolic Activation: NONE, Method: PREINCUBATION
[3] = Test System: AMES SALMONELLA TYPHIMURIUM, Strain/Indicator: TA1535, Metabolic Activation: NONE, Method: PREINCUBATION
[4] = Test System: AMES SALMONELLA TYPHIMURIUM, Strain/Indicator: TA98, Metabolic Activation: NONE, Method: STANDARD PLATE
[5] = Test System: AMES SALMONELLA TYPHIMURIUM, Strain/Indicator: TA100, Metabolic Activation: NONE, Method: STANDARD PLATE

C[C@H]1SC[C@@H](C(=O)N[C@@H](Cc2cnc[nH]2)C(=O)N2CCC[C@H]2C(N)=O)NC1=O
mutagenic call [1]: inactive; negative | mutagenic call (Test System: AMES SALMONELLA TYPHIMURIUM, Strain/Indicator: TA98, Metabolic Activation: RAT, LIVER, S-9, AROCLOR 1254, Method: PREINCUBATION): inactive; negative | mutagenic call [2]: inactive; negative | mutagenic call (Test System: AMES SALMONELLA TYPHIMURIUM, Strain/Indicator: TA100, Metabolic Activation: RAT, LIVER, S-9, AROCLOR 1254, Method: PREINCUBATION): inactive; negative | mutagenic call [3]: inactive; negative | mutagenic call (Test System: AMES SALMONELLA TYPHIMURIUM, Strain/Indicator: TA1535, Metabolic Activation: RAT, LIVER, S-9, AROCLOR 1254, Method: PREINCUBATION): inactive; negative | mutagenic call (Test System: AMES SALMONELLA TYPHIMURIUM, Strain/Indicator: TA1537, Metabolic Activation: NONE, Method: PREINCUBATION): inactive; negative | mutagenic call (Test System: AMES SALMONELLA TYPHIMURIUM, Strain/Indicator: TA1537, Metabolic Activation: RAT, LIVER, S-9, AROCLOR 1254, Method: PREINCUBATION): inactive; negative | mutagenic call (Test System: E. COLI, Strain/Indicator: WP2 UVRA, Metabolic Activation: NONE, Method: PREINCUBATION): inactive; negative | mutagenic call (Test System: E. COLI, Strain/Indicator: WP2 UVRA, Metabolic Activation: RAT, LIVER, S-9, AROCLOR 1254, Method: PREINCUBATION): inactive; negative

Clc1cccc2ccccc12
mutagenic call (Test System: AMES SALMONELLA TYPHIMURIUM, Strain/Indicator: TA97, Metabolic Activation: HAMSTER, LIVER, S-9, AROCLOR 1254 (10%), Method: PREINCUBATION): inactive; negative | mutagenic call (Test System: AMES SALMONELLA TYPHIMURIUM, Strain/Indicator: TA97, Metabolic Activation: HAMSTER, LIVER, S-9, AROCLOR 1254 (30%), Method: PREINCUBATION): active; positive | mutagenic call (Test System: AMES SALMONELLA TYPHIMURIUM, Strain/Indicator: TA97, Metabolic Activation: NONE, Method: PREINCUBATION): inactive; negative | mutagenic call (Test System: AMES SALMONELLA TYPHIMURIUM, Strain/Indicator: TA97, Metabolic Activation: RAT, LIVER, S-9, AROCLOR 1254 (30%), Method: PREINCUBATION): inactive; negative | mutagenic call (Test System: AMES SALMONELLA TYPHIMURIUM, Strain/Indicator: TA98, Metabolic Activation: HAMSTER, LIVER, S-9, AROCLOR 1254 (30%), Method: PREINCUBATION): inactive; negative | mutagenic call [1]: inactive; negative | mutagenic call [4]: inactive; negative | mutagenic call (Test System: AMES SALMONELLA TYPHIMURIUM, Strain/Indicator: TA98, Metabolic Activation: RAT, LIVER, S-9, AROCLOR 1254 (30%), Method: PREINCUBATION): inactive; negative | mutagenic call (Test System: AMES SALMONELLA TYPHIMURIUM, Strain/Indicator: TA98, Metabolic Activation: RAT, LIVER, S-9, AROCLOR 1254, Method: STANDARD PLATE): inactive; negative | mutagenic call (Test System: AMES SALMONELLA TYPHIMURIUM, Strain/Indicator: TA100, Metabolic Activation: HAMSTER, LIVER, S-9, AROCLOR 1254 (10%), Method: PREINCUBATION): inactive; negative | mutagenic call (Test System: AMES SALMONELLA TYPHIMURIUM, Strain/Indicator: TA100, Metabolic Activation: HAMSTER, LIVER, S-9, AROCLOR 1254 (30%), Method: PREINCUBATION): active; positive | mutagenic call [2]: inactive; negative | mutagenic call [5]: inactive; negative | mutagenic call (Test System: AMES SALMONELLA TYPHIMURIUM, Strain/Indicator: TA100, Metabolic Activation: RAT, LIVER, S-9, AROCLOR 1254 (10 OR 30%), Method: PREINCUBATION): inactive; negative | mutagenic call (Test System: AMES SALMONELLA TYPHIMURIUM, Strain/Indicator: TA100, Metabolic Activation: RAT, LIVER, S-9, AROCLOR 1254, Method: STANDARD PLATE): inactive; negative | mutagenic call (Test System: AMES SALMONELLA TYPHIMURIUM, Strain/Indicator: TA1535, Metabolic Activation: HAMSTER, LIVER, S-9, AROCLOR 1254 (10 OR 30%), Method: PREINCUBATION): inactive; negative | mutagenic call [3]: inactive; negative | mutagenic call (Test System: AMES SALMONELLA TYPHIMURIUM, Strain/Indicator: TA1535, Metabolic Activation: RAT, LIVER, S-9, AROCLOR 1254 (30%), Method: PREINCUBATION): inactive; negative

CC1(C)CC2=C(C=O)[C@@]3(C=O)C[C@@]3(C)[C@@H](O)[C@@H]2C1
mutagenic call [4]: active; positive | mutagenic call [5]: active; positive | mutagenic call (Test System: CHINESE HAMSTER V-79, Strain/Indicator: V-79/6-THIOGUANINE (HGPRT), Metabolic Activation: NONE): inactive; negative

Nc1cccc2c(N)cccc12
mutagenic call [4]: inactive; negative | mutagenic call (Test System: AMES SALMONELLA TYPHIMURIUM, Strain/Indicator: TA98, Metabolic Activation: RAT, LIVER, S-9, Method: STANDARD PLATE): inactive; negative | mutagenic call (Test System: AMES SALMONELLA TYPHIMURIUM, Strain/Indicator: TA1535, Metabolic Activation: HAMSTER, LIVER, S-9, AROCLOR 1254, Method: STANDARD PLATE): inactive; negative | mutagenic call (Test System: AMES SALMONELLA TYPHIMURIUM, Strain/Indicator: TA1535, Metabolic Activation: HAMSTER, LIVER, S-9, Method: STANDARD PLATE): inactive; negative | mutagenic call (Test System: AMES SALMONELLA TYPHIMURIUM, Strain/Indicator: TA1535, Metabolic Activation: MOUSE, LIVER, S-9, AROCLOR 1254, Method: STANDARD PLATE): inactive; negative | mutagenic call (Test System: AMES SALMONELLA TYPHIMURIUM, Strain/Indicator: TA1535, Metabolic Activation: MOUSE, LIVER, S-9, Method: STANDARD PLATE): inactive; negative | mutagenic call (Test System: AMES SALMONELLA TYPHIMURIUM, Strain/Indicator: TA1535, Metabolic Activation: NONE, Method: STANDARD PLATE): inactive; negative | mutagenic call (Test System: AMES SALMONELLA TYPHIMURIUM, Strain/Indicator: TA1535, Metabolic Activation: RAT, LIVER, S-9, AROCLOR 1254, Method: STANDARD PLATE): inactive; negative | mutagenic call (Test System: AMES SALMONELLA TYPHIMURIUM, Strain/Indicator: TA1535, Metabolic Activation: RAT, LIVER, S-9, Method: STANDARD PLATE): inactive; negative | mutagenic call (Test System: AMES SALMONELLA TYPHIMURIUM, Strain/Indicator: TA1537, Metabolic Activation: HAMSTER, LIVER, S-9, AROCLOR 1254, Method: STANDARD PLATE): active; positive | mutagenic call (Test System: AMES SALMONELLA TYPHIMURIUM, Strain/Indicator: TA1537, Metabolic Activation: MOUSE, LIVER, S-9, Method: STANDARD PLATE): inactive; negative | mutagenic call (Test System: AMES SALMONELLA TYPHIMURIUM, Strain/Indicator: TA1537, Metabolic Activation: RAT, LIVER, S-9, Method: STANDARD PLATE): inactive; negative | mutagenic call (Test System: AMES SALMONELLA TYPHIMURIUM, Strain/Indicator: TA1538, Metabolic Activation: MOUSE, LIVER, S-9, AROCLOR 1254, Method: STANDARD PLATE): inactive; negative | mutagenic call (Test System: AMES SALMONELLA TYPHIMURIUM, Strain/Indicator: TA1538, Metabolic Activation: MOUSE, LIVER, S-9, Method: STANDARD PLATE): inactive; negative | mutagenic call (Test System: AMES SALMONELLA TYPHIMURIUM, Strain/Indicator: TA1538, Metabolic Activation: NONE, Method: STANDARD PLATE): inactive; negative | mutagenic call (Test System: AMES SALMONELLA TYPHIMURIUM, Strain/Indicator: TA1538, Metabolic Activation: RAT, LIVER, S-9, Method: STANDARD PLATE): inactive; negative | mutagenic call (Test System: E. COLI, Strain/Indicator: WP2 UVRA, Metabolic Activation: HAMSTER, LIVER, S-9, AROCLOR 1254, Method: STANDARD PLATE): inactive; negative | mutagenic call (Test System: E. COLI, Strain/Indicator: WP2 UVRA, Metabolic Activation: HAMSTER, LIVER, S-9, Method: STANDARD PLATE): inactive; negative | mutagenic call (Test System: E. COLI, Strain/Indicator: WP2 UVRA, Metabolic Activation: MOUSE, LIVER, S-9, AROCLOR 1254, Method: STANDARD PLATE): inactive; negative | mutagenic call (Test System: E. COLI, Strain/Indicator: WP2 UVRA, Metabolic Activation: MOUSE, LIVER, S-9, Method: STANDARD PLATE): inactive; negative | mutagenic call (Test System: E. COLI, Strain/Indicator: WP2 UVRA, Metabolic Activation: NONE, Method: STANDARD PLATE): inactive; negative | mutagenic call (Test System: E. COLI, Strain/Indicator: WP2 UVRA, Metabolic Activation: RAT, LIVER, S-9, AROCLOR 1254, Method: STANDARD PLATE): inactive; negative | mutagenic call (Test System: E. COLI, Strain/Indicator: WP2 UVRA, Metabolic Activation: RAT, LIVER, S-9, Method: STANDARD PLATE): inactive; negative
